ChEMBL document CHEMBL1201862, “PubChem BioAssay data set” (2004)
The source made the active and inactive calls.

Key:
Vero [1] = test: cells; assay type: functional; details: Chlorocebus sabaeus
[2] = target: T1, Replicative DNA helicase DnaB (Mycobacterium tuberculosis, UniProt P9WMR3); test: DnaB intein splicing inhibitors, dose response, biochemical, cell-free fluorescence (AID 449749); assay type: functional
T1 sequence (P9WMR3 whole entry): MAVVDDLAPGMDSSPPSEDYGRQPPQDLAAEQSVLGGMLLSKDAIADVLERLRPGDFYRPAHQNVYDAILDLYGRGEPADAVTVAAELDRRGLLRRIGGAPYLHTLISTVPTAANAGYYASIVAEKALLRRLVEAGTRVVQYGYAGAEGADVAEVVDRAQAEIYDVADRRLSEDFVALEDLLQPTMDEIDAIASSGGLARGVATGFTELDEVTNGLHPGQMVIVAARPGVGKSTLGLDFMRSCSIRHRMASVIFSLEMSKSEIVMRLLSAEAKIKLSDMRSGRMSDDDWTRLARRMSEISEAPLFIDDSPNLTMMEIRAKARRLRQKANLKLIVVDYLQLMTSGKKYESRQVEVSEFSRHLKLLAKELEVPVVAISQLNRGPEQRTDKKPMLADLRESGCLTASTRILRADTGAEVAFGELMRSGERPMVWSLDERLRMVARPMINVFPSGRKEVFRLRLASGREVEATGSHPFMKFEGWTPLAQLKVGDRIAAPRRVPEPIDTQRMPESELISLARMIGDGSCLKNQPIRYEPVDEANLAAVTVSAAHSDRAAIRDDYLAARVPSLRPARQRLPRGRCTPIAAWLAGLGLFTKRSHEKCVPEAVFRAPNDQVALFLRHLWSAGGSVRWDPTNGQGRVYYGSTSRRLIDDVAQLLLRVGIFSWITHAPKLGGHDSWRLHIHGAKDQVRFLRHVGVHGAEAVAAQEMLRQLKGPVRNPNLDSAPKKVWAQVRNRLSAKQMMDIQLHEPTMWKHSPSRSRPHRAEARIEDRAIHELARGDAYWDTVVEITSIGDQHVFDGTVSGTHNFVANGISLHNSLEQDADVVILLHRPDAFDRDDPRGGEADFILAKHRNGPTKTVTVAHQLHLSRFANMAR

[3] = target: T2, Heat shock factor protein 1 (Mus musculus, UniProt P38532); test: enhancement of HSF1-driven luciferase signal – cell-based, NIH3T3, luminescence, dose retest, confirmation (AID 435004); assay type: functional;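 also: stress induced by proteasome inhibitor MG132 added 30 min after compound; luciferase reporter driven by HSF1 response element in NIH3T3 cells; actives raise luminescence as potentiators of the MG132 stress response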
T2 sequence (P38532 whole entry): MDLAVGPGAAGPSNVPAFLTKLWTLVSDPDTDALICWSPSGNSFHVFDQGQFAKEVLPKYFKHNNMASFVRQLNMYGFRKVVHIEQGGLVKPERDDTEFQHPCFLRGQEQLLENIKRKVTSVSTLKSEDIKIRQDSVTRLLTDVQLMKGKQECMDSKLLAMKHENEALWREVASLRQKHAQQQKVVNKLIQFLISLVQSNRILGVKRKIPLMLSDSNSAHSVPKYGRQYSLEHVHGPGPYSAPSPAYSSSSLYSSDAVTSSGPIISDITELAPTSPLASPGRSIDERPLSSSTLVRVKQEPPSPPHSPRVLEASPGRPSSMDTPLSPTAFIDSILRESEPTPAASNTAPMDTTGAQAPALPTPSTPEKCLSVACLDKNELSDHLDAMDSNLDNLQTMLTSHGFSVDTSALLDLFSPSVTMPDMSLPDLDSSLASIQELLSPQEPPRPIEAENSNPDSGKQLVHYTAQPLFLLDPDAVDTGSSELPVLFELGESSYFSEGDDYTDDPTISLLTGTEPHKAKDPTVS

Vero [4] = test: cells; assay type: functional, cell-based; details: Chlorocebus sabaeus
[5] = Luminescence Cell-Based Dose Retest to Confirm Inhibitors of Cancer Stem Cells. [Related pubchem assays (depositor defined):AID2717, AID2721]; assay type: functional; details: Homo sapiens
Protein RecA = target: T3, Protein RecA (Mycobacterium tuberculosis, UniProt P9WHJ3); test: Fluorescence Cell-Free Homogeneous Dose Retest to Identify Inhibitors of RecA-Intein Splicing Activity. [Related pubchem assays (depositor defined):AID2097, AID2223, AID489010, AID492950]; assay type: functional
T3 sequence (P9WHJ3 whole entry): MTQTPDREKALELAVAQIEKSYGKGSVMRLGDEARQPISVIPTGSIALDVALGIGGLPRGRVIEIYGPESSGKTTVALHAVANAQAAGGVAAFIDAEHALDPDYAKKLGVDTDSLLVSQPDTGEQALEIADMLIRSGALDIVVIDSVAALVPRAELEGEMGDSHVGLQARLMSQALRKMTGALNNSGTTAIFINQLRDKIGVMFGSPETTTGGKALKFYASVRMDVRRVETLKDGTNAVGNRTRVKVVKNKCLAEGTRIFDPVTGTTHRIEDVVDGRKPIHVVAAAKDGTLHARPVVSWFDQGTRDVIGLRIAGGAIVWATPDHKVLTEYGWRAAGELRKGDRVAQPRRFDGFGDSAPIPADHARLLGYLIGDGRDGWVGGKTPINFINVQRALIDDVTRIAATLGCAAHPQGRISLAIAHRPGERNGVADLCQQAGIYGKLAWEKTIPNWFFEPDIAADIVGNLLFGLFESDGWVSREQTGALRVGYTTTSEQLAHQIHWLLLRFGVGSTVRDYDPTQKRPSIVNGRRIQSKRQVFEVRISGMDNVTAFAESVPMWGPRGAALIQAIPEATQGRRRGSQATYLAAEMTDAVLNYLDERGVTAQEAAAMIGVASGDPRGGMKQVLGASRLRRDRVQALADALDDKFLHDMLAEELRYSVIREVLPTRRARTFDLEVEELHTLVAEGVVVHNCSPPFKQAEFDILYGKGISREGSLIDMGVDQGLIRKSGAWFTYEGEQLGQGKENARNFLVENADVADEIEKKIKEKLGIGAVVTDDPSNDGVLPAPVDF

Genome polyprotein = Genome polyprotein (dengue virus type 2, UniProt P29990); test: flavivirus cap methylation enzyme inhibition – biochemical, confirmation dose response, primary screen (AID 588689); assay type: functional
Sequence of Genome polyprotein (P29990 2492-3391 limits assumed): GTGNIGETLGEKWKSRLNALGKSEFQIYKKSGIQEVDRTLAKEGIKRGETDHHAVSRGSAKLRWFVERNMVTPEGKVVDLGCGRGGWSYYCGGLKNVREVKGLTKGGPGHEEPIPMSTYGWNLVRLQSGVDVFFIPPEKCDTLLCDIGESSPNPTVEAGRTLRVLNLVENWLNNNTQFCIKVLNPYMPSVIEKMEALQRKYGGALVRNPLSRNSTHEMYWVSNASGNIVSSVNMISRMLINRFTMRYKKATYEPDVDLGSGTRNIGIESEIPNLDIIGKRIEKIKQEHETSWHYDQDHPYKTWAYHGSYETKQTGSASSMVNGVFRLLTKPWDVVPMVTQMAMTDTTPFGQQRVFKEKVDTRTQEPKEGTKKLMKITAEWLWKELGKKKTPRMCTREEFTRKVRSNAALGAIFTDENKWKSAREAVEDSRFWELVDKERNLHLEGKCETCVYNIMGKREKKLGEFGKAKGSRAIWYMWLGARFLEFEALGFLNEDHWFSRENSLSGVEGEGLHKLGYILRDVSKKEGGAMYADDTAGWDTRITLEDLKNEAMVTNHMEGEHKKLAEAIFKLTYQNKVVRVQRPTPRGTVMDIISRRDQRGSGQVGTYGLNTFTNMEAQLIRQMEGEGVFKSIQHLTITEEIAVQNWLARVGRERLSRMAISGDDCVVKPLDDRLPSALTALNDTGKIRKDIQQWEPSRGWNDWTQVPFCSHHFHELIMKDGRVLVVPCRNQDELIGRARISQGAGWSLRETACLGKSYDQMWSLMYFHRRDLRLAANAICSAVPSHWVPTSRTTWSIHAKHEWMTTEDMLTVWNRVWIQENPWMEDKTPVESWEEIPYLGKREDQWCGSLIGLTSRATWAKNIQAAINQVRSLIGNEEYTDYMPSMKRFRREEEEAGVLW

Vero [6] = test: mammalian cell viability reduction – secondary assay, cytotoxicity control for West Nile virus antiviral project, dose response (AID 1650); assay type: functional; details: Chlorocebus sabaeus
Vero [7] = test: viability of Vero cells under compound – cytotoxicity control for flavivirus capping enzyme inhibitors (AID 588742); assay type: functional; details: Chlorocebus sabaeus
[8] = Luminescent dose response cell-based high throughput screening assay for inhibitors of the Janus kinase 2 mutant JAK2V617F. [Related pubchem assays: 1446 (Primary screen.), 1521 (Confirmation assay.), 1486 (Counter screen.)]; assay type: functional
[9] = A Cell-Based Confirmatory Screen for Compounds that Inhibit VEEV, TC-83 (2).; assay type: functional
[10] = viability loss in Vero 76 cells – cell-based, set 2, cytotoxicity control, dose response (AID 602240); assay type: functional; details: Venezuelan equine encephalitis virus
[11] = A Cell-Based Counter Screen testing Compounds that Inhibit VEEV TC-83, in strain KU V3526.; assay type: functional
[12] = viability of uninfected HEp-2 cells – cell-based, HTS, cytotoxicity control for RSV inhibitor project, dose response (AID 2410); assay type: functional; details: human respiratory syncytial virus
[13] = target: ATP-sensitive inward rectifier potassium channel 1 (Homo sapiens, UniProt P48048); test: Kir1.1 channel inhibitor analog potency – cell-based, thallium flux, analog library, SAR follow-up (AID 435017); assay type: functional
Sequence of ATP-sensitive inward rectifier potassium channel 1 (P48048 whole entry): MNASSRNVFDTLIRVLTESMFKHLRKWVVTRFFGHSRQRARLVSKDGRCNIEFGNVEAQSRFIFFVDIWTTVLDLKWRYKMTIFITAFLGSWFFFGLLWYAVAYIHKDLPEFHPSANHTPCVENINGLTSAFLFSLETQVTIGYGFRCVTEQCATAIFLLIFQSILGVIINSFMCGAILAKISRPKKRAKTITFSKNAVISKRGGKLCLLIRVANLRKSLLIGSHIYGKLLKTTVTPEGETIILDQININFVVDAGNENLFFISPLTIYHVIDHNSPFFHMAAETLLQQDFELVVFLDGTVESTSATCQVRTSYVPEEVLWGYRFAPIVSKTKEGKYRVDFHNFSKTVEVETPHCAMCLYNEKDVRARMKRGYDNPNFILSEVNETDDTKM

[14] = Luminescence Cell-Based Dose Confirmation HTS to Identify Activators of 5'UTR Stem-Loop Driven Alpha-Synuclein mRNA Translation in H4 Neuroglioblastoma Cells. [Related pubchem assays: 1829 (Project Summary), 1814 (Primary HTS)]; assay type: functional
[15] = Luminescence Cell-Based Dose Response to Identify Activators of 5'UTR Stem-Loop Driven Prion Protein mRNA Translation in H4-C Neuroglioblastoma Cells. [Related pubchem assays: 1829 (Project Summary), 1814 (Primary HTS)]; assay type: functional
[16] = Luminescence Cell-Based Dose Response to Identify Activators of Luciferase Translation or Activity in H4-C Neuroglioblastoma Cells. [Related pubchem assays: 1829 (Project Summary), 1814 (Primary HTS)]; assay type: functional
[17] = Luminescence Cell-Based Dose Confirmation to Identify Activators of 5'UTR Stem-Loop Driven Alpha-Synuclein mRNA Translation in H4 Neuroglioblastoma Cells. [Related pubchem assays: 1829 (Project Summary), 1814 (Primary HTS)]; assay type: functional
[18] = Luminescence Cell-Based Dose Response HTS to Identify Activators of Luciferase Translation or Activity in H4 […] Cells. [Related pubchem assays: 1829 (Project Summary), 1814 (Primary HTS)]; assay type: functional
H4 = test: Luminescence Cell-Based Dose Response HTS to Identify Activators of 5'UTR Stem-Loop Driven Prion Protein mRNA Translation in H4 Neuroglioblastoma Cells. [Related pubchem assays: 1829 (Project Summary), 1814 (Primary HTS)]; assay type: functional; details: Homo sapiens
[19] = A High Throughput Confirmatory Assay used to Identify Novel Compounds that Inhibit Mycobacterium Tuberculosis in the absence of Glycerol.; assay type: functional
[20] = M. tuberculosis growth inhibition, HTS (AID 449762); assay type: functional
[21] = M. tuberculosis H37Rv growth inhibitors, H37Rv strain (AID 1626); assay type: functional

Question: Which results are given for Cc1ccc(NC(=O)C(=Cc2ccc(C(=O)O)cc2)C(=O)Nc2ccc(C)cc2C)c(C)c1?
Answer: CC50 (Vero [1]): 9.83 µM (active); AC50 [2]: 2.51 µM (active); EC50 [3]: 6.71 µM (active); IC50 (Vero [4]): 19.6 µM (active); AC50 [5]: 1.9 µM (active); EC50 (Protein RecA): 3.21 µM (active); IC50 (Genome polyprotein): > 100 µM (active); CC50 (Vero [6]): 7.51 µM (active); CC50 (Vero [7]): 27.3 µM (active); IC50 [8]: 1.95 µM (active)

Question: With O=C(Cc1cccs1)Nc1nc2c(s1)CCCC2 as the compound, how does the CC50 (Vero [1]) read?
Answer: Its CC50 is > 25 µM (active).

Question: And the IC50 [9]?
Answer: The IC50 was 7.09 µM (active).

Question: What about the CC50 [10] of the same compound?
Answer: The CC50 was > 50 µM (active).

Question: And the IC50 [11]?
Answer: The IC50 was 4.71 µM (active).

Question: And the IC50 (Vero [4])?
Answer: Its IC50 is 6.38 µM (active).

Question: And the CC50 [12]?
Answer: Its CC50 is 17.2 µM (active).

Question: And the IC50 (cells)?
Answer: The IC50 was 10 µM (active).

Question: Which IC50 [13] does the source give for COc1ccc([N+](=O)[O-])cc1CN1CCOCCOCCN(Cc2ccc([N+](=O)[O-])cc2OC)CCOCC1 here?
Answer: The IC50 was 1.5 µM (active).

Question: What does the source list for NNc1nc2c(F)cccc2s1?
Answer: EC50 [14]: < 0.1 µM (active); EC50 [15]: > 12 µM (not active); EC50 [16]: > 12 µM (not active); EC50 [17]: > 12 µM (not active); EC50 [18]: 5.67 µM (active); EC50 (H4): > 120 µM (not active)

Question: For O=c1c2ccccc2nc(/C=C/c2ccccc2)n1-c1ccc(O)cc1, which IC50 [19] is on record?
Answer: Its IC50 is > 50 µM (active).

Question: And the IC50 [20]?
Answer: Its IC50 is > 100 µM (active).

Question: With CCc1ccc(Nc2c([N+](=O)[O-])c(=O)oc3ccccc23)cc1 as the compound, how does the IC50 [21] read?
Answer: Its IC50 is > 100 µM (active).
